Converted amounts (≈) assume the structure as drawn. Read-outs that look alike come from different tables or passages of the source.
Tests used:
P. falciparum Dd2 = P. falciparum Dd2 parasite growth, pLDH readout, 72 h incubation; assay type: cell-based; details: Plasmodium falciparum, read-out: Dd2 LDH (72 h) IC50
Description: (§1) Here, this state of the art screening platform was applied to CQL (Figure 3). During solubilization and reformatting activities, 40 samples were identified with solubility issues and removed from the screening set, thereby leaving 5810 compounds (4623 scored + 1187 randomly selected). A primary screen was conducted at a single concentration (2 μM) against P. falciparum NF54 (nanoGlo readout over 72 h incubation). […] These compounds were then tested in five-point dose–response curve (DRC) assays, each of which provides key information to decide which compound(s) to progress (highlighted in blue). Five different assays were carried out, including three parasite growth assays over 72 h of incubation (P. falciparum NF54 in both nanoGlo and pLDH read-outs and P. falciparum Dd2 in pLDH read-out), one parasite growth assay over 12 h of incubation (P. falciparum NF54 in nanoGlo read-out) in order to evaluate the speed of action, and a cytotoxicity assay against human HepG2 cells over 72 h of incubation. Out of 36 screening active compounds (36 + 0) fulfilling all of the ideal criteria, 12 were deemed attractive in terms of chemical novelty and diversity for further progression and evaluation. This set of compounds was further complemented with others that passed at least three of the five DRC criteria, together with assessments of chemical novelty and diversity, which led to 33 selected compounds. Twenty-two compounds (those still available from commercial suppliers) were repurchased, and the compound efficacy was retested against P. falciparum 3D7 (pLDH readout over 72 h incubation) and human HepG2 cells over 72 h of incubation at a different testing center.
No unexpected or unusually high safety hazards were encountered.
(§2) The Medicines for Malaria Venture (MMV)’s P. falciparum asexual blood stage phenotypic screening platform was used to experimentally validate the selected compounds. Full details can be found in a recent publication.5 Briefly, the HTS cascade relies on a newly developed P. falciparum strain genetically modified to express a nano-luciferase reporter gene driven by the ef1α promoter. In addition to providing similar results compared to a fluorescence-based assay, this reporter provided a robust read-out for parasite replication with incubation times as short […]
(§3) The screening platform consists of a primary screening where the compounds were tested at a single concentration (2 μM) against the chloroquine and pyrimethamine sensitive P. falciparum strain NF54 using a nanoGlo detection reagent. Compounds that exceeded a Z-score threshold of -4 were screened a second time in this assay format in addition to an orthogonal assay (P. falciparum NF54, pLDH). Only the compounds inhibiting parasite growth by more than 30% were then tested in five dose-response curve (DRC) assays. These assays were designed to evaluate different aspects any future antimalarial drug has to fulfil: - sensitivity (P. falciparum NF54, nanoGlo and P. falciparum NF54, pLDH); - efficacy against resistant parasite strains (P. falciparum Dd2, pLDH); - low cellular toxicity (HepG2 cells). In addition, to evaluate their speed of action, […]

[1] = Metabolic stability in human liver microsomes; assay type: in vitro ADME; details: 1 µM compound, 0.5 mg/mL pooled human liver microsomes
Description: Metabolic stability study using human liver microsomes
A solution of the test compounds in phosphate buffer solution (1 µM) was incubated in pooled human liver microsomes (0.5 mg/mL) for 0, 5, 20, 30, 45 and 60 minutes at 37 °C in the presence and absence of NADPH regeneration system. The reaction was terminated with the addition of ice-cold acetonitrile containing system suitability standard at designated time points. The sample was centrifuged (4200 rpm) for 20 minutes at 20 °C and the supernatant was half diluted in water and then analysed by means of LC-MS/MS. Compound clearance (CLint,app) was […]
calculated using standard methodology. The experiment was carried out in duplicate.
Verapamil, diltiazem, phenacetin and imipramine were used as reference standards. […]

P. falciparum 3D7 [2] = test: P. falciparum 3D7 parasite growth, pLDH readout, 72 h incubation; assay type: cell-based; details: Plasmodium falciparum, P. falciparum 3D7, pLDH readout, read-out: 3D7 LDH (72 h) IC50
Description: Afterwards, the remaining compounds were evaluated for their attractiveness derived from the chemical diversity relative to existing antimalarial drugs (Table S2 / Supplementary file SMILES-Table S2.xls) and calculated using Tanimoto similarity based on 2D molecular fingerprints. At this stage the list of remaining compounds was expanded with additional compounds that fulfilled at least 3 of the DRC assays criteria. Compounds still commercially available for re-stock were purchased and retested in a different laboratory against P. falciparum 3D7 with a pLDF read-out, […]
(§4) and in human HepG2 cells. […]
(§5) in the parasite growth inhibition assay, and higher than 10 μM in the cell viability assay obtained in two distinct locations. […]

[3] = Metabolic stability in cryopreserved rat hepatocytes; assay type: in vitro ADME
Description: Metabolic stability using cryopreserved rat hepatocytes
A solution of the test compound in Krebs-Henseleit buffer solution (1 µM) was incubated in […]
CO2, 95% relative humidity). The reaction was terminated with the addition of ice-cold acetonitrile containing system suitability standard at designated time points. The sample was centrifuged (4200 rpm) for 20 minutes at 20 °C and the supernatant was half diluted in water and then analysed by means of LC-MS/MS. Compound clearance (CLint,app) was calculated using standard methodology. The experiment was carried out in duplicate. Diltiazem, 7-ethoxy coumarin, propranolol and midazolam were used as reference standards. […]

in vitro = assay type: cell-based; details: human
Description: as §1, with “center. […]” for “center.”
as §2, §3
versus 72 hours for the assays previously mentioned. […]
Compounds still commercially available for re-stock were purchased and retested in a different laboratory against P. falciparum 3D7 with a pLDF read-out, […]
as §4, §5

[4] = Solubility in PBS pH 7.4, miniaturised shake flask; assay type: physicochemical; details: kinetic from dmso stock, 25 °C
Description: Solubility in phosphate buffered saline (PBS) pH7.4
The solubility assay was performed using a miniaturised shake flask method. A solution of phosphate buffered saline (PBS) and the test compound (200 µM) was incubated at 25 °C with constant shaking (600 rpm) for 2 hours. The samples were filtered using a multiscreen solubility filter plate. The filtrate was half diluted in acetonitrile. A five-point linearity curve was prepared in PBS:Acetonitrile (1:1, v/v) at 200, 150, 75, 25 and 2.5 µM. Blank, linearity and test samples (n = 2) were transferred to a UV readable plate and the plate was scanned for absorbance. Best […]
fit calibration curves were constructed using the calibration standards and used to determine the test sample solubility. The experiment was carried out in duplicate. Diethylstilbestrol, haloperidol and sodium diclofenac were used as reference standards. […]

[5] = LogD at pH 7.4, miniaturised shake flask; assay type: physicochemical
Description: The LogD pH7.4 assay was performed using a miniaturised shake flask method. A solution of a pre-saturated mixture of 1-octanol and PBS (1:1, v/v) and the test compound (75 µM) was incubated at 25 °C with constant shaking (850 rpm) for 2 hours. After incubation the organic and aqueous phases were separated, and samples of each phase transferred to plate for dilution. The organic phase was diluted to 1000-fold and the aqueous phase was diluted 20-fold. The samples were quantitated using LC-MS/MS. The experiment was carried out in duplicate. Propranolol, amitriptyline and midazolam were used as reference standards. […]

P. falciparum 3D7 [6] = tested on: P. falciparum 3D7; parameters: method as in ChEMBL (version 32), ref 29; details: ref ChEMBL (version 32), cited from earlier work
[7] = pooled cryopreserved rat hepatocytes, 1 µM compound, pooled rat hepatocytes 1×10^6 cells/mL, read-out: rat hepatocytes CLint
[8] = phosphate buffered saline, aqueous buffer, PBS pH 7.4, test compound 200 µM, 2 hours
[9] = 1-octanol/PBS (1:1, v/v), pre-saturated, 1-octanol/PBS, pH 7.4, 25 °C, read-out: LogD pH 7.4
[10] = read-out: Antimalarial activity: XC50
[11] = phosphate buffered saline, aqueous buffer, PBS pH 7.4, test compound 200 µM, 2 hours, read-out: kinetic solubility

Compound: Cc1cnccc1N1CCCN(Cc2ccccc2OCCN2CCN(C)CC2)CC1 [MMV1802771]
- IC50 (P. falciparum Dd2; DD2, 72 h): 1100 nM
- microsomal CLint at 1 h, 1 µM [1]: 11 µL/min/mg
- IC50 (P. falciparum 3D7 [2]): 810 nM
- hepatocyte CLint at 1.5 h, 1 µM [3, 7]: 2.6 µL/min/1e6 cells
- IC50 at 72 h (in vitro): 20000 nM
- solubility kinetic at 2 h, 200 µM [4, 8]: 100 µM (≈ 42.4 µg/mL)
- logD at 2 h, 75 µM [5, 9]: 1

Compound: CC1CCN(Cc2cccc(C(=O)NCc3ccc(F)c(-c4ccc(CN5CCN[C@H](C)C5)cc4)c3)c2)CC1 [CHEMBL580242]
- IC50 (P. falciparum 3D7 [6]; [10]): 1460 nM

Compound: COc1c(C2CCN(CCN3CCC(CNC(=O)c4ccc(-c5ccc(C#N)cc5)cc4)CC3)CC2)ccc2c1CCCC2 [CHEMBL528171]
- IC50 (P. falciparum 3D7 [6]; [10]): 445 nM

Compound: CN1CCC(Oc2ccc(NC(=O)c3cn4ccnc4s3)cn2)CC1 [MMV1797331]
- IC50 (P. falciparum Dd2; DD2, 72 h): 2000 nM
- microsomal CLint at 1 h, 1 µM [1]: 3.7 µL/min/mg
- IC50 (P. falciparum 3D7 [2]): 1900 nM
- hepatocyte CLint at 1.5 h, 1 µM [3, 7]: 1.9 µL/min/1e6 cells
- IC50 at 72 h (in vitro): 21600 nM
- solubility kinetic at 2 h [4, 11]: ≥ 200 µM
- logD at 2 h, 75 µM [5, 9]: 1

Compound: Oc1cc(CN2CCC(O)(Cn3ccnc3)CC2)nc2c(Cl)cccc12 [CHEMBL3476473]
- IC50 (P. falciparum 3D7 [6]; read-out: Antimalarial activity: inhibition): 882 nM

Compound: COc1ccc(-c2cncc(C(=O)NCC3CCN(CCN(C)C)CC3)c2)cc1 [MMV1799348]
- IC50 (P. falciparum Dd2; DD2, 72 h): 2700 nM
- microsomal CLint at 1 h, 1 µM [1]: 3.5 µL/min/mg
- IC50 (P. falciparum 3D7 [2]): 1100 nM
- hepatocyte CLint at 1.5 h, 1 µM [3, 7]: 1.2 µL/min/1e6 cells
- IC50 at 72 h (in vitro): > 25000 nM
- solubility kinetic at 2 h, 200 µM [4, 8]: 198 µM (≈ 78.5 µg/mL)
- logD at 2 h, 75 µM [5, 9]: 1.2

Compound: O=C(NC1CCN(CCOc2ccc(Cl)cc2)CC1)c1c[nH]c2ccncc2c1=O [MMV1798946]
- IC50 (P. falciparum Dd2; DD2, 72 h): 2000 nM
- microsomal CLint at 1 h, 1 µM [1]: 14 µL/min/mg
- IC50 (P. falciparum 3D7 [2]): 750 nM
- hepatocyte CLint at 1.5 h, 1 µM [3, 7]: 2 µL/min/1e6 cells
- IC50 at 72 h (in vitro): > 25000 nM
- solubility kinetic at 2 h, 200 µM [4, 8]: 170 µM (≈ 72.6 µg/mL)
- logD ([5]; 1-octanol/PBS (1:1, v/v), pre-saturated, 1-octanol/PBS, pH 7.4, 25 °C): 2.9

Compound: Cc1c(CN2CCC(O)(Cn3ccnc3)CC2)[nH]c2c(Cl)cccc12 [MMV1801316]
- IC50 (P. falciparum Dd2; DD2, 72 h): 3600 nM
- microsomal CLint at 1 h, 1 µM [1]: 24.1 µL/min/mg
- IC50 (P. falciparum 3D7 [2]): 1500 nM
- hepatocyte CLint at 1.5 h, 1 µM [3, 7]: 2.7 µL/min/1e6 cells
- IC50 at 72 h (in vitro): > 25000 nM
- solubility kinetic at 2 h, 200 µM [4, 8]: 86 µM (≈ 30.9 µg/mL)
- logD at 2 h, 75 µM [5, 9]: 2.8

Compound: CN1CCN(CCCCNC2CC3CCC(C2)N3Cc2ccccc2)CC1 (centres unmarked) [MMV1797951]
- IC50 (P. falciparum Dd2; P. falciparum Dd2 (drug-resistant), pLDH readout, 72 h): 980 nM
- microsomal CLint at 1 h, 1 µM [1]: 8.3 µL/min/mg
- IC50 (P. falciparum 3D7 [2]): 1000 nM
- hepatocyte CLint at 1.5 h, 1 µM ([3]; rat, hepatocytes): 1.4 µL/min/1e6 cells
- IC50 at 72 h (in vitro): 13800 nM
- solubility kinetic at 2 h ([4]; pH 7.4, aqueous buffer): ≥ 200 µM
- logD at 2 h, 75 µM ([5]; pH 7.4): -0.2

Compound: c1ccc(-c2ccnc(C3CCN(CC45CNCC4C5)CC3)n2)cc1 (centres unmarked) [MMV1797658]
- IC50 (P. falciparum Dd2; DD2, 72 h): 1500 nM
- microsomal CLint at 1 h, 1 µM [1]: 3.5 µL/min/mg
- IC50 (P. falciparum 3D7 [2]): 780 nM
- hepatocyte CLint at 1.5 h, 1 µM [3, 7]: 7.2 µL/min/1e6 cells
- IC50 at 72 h (in vitro): 22100 nM
- solubility kinetic at 2 h [4, 11]: ≥ 200 µM
- logD at 2 h, 75 µM [5, 9]: 0.5

Compound: CC1(N2CCC2)CCC(NCC2CCN(Cc3ccccc3)C2)CC1 (centres unmarked) [MMV1798925]
- IC50 (P. falciparum Dd2; DD2, 72 h): 1500 nM
- microsomal CLint at 1 h, 1 µM [1]: 3.5 µL/min/mg
- IC50 (P. falciparum 3D7 [2]): 1100 nM
- hepatocyte CLint at 1.5 h, 1 µM [3, 7]: 7.2 µL/min/1e6 cells
- IC50 at 72 h (in vitro): 19100 nM
- solubility kinetic at 2 h, 200 µM [4, 8]: 173 µM (≈ 59.1 µg/mL)
- logD at 2 h, 75 µM [5, 9]: 0.3
